Measurements reported in ChEMBL document CHEMBL1132706 (J Med Chem, 1999).

Assays:
[1] = system: CEM-SS; test: Compound was evaluated for the cytoprotection by XTT cytoprotection assay through the NCI AIDS Screen; assay type: functional, cell-based; conditions: Homo sapiens
[2] = Compound was evaluated for the relative inhibition of Viral infection in MAGI cells at concentration 0.1 mM, using assay 3; assay type: functional, Homo sapiens
[3] = Compound was evaluated for the relative inhibition of Viral infection in MAGI cells at concentration 100 mM, using assay 1; assay type: functional, Homo sapiens
[4] = Compound was evaluated for the relative inhibition of Viral infection in MAGI cells at concentration 10 mM, using assay 1; assay type: functional, Homo sapiens
[5] = Compound was evaluated for the relative inhibition of Viral infection in MAGI cells at concentration 10mM, using assay 2; assay type: functional, Homo sapiens
[6] = Compound was evaluated for the relative inhibition of Viral infection in MAGI cells at concentration 10 mM, using assay 3; assay type: functional, Homo sapiens
[7] = Compound was evaluated for the relative inhibition of Viral infection in MAGI cells at concentration 1 mM, using assay 1; assay type: functional, Homo sapiens
[8] = system: MT4; test: Concentration of compound required to protect 50% of MT-4 cells against retroviral cytopathic effects by HIV-1 ([…]); assay type: functional, cell-based; conditions: Homo sapiens
[9] = system: MT4; test: Concentration of compound required to protect 50% of MT-4 cells against retroviral cytopathic effects by HIV-2 (ROD); assay type: functional, cell-based; conditions: Homo sapiens
[10] = system: MT4; test: Concentration of compound required to reduce MT-4 cell viability by 50%; assay type: functional, cell-based; conditions: Homo sapiens
[11] = system: CEM-SS; test: Compound was evaluated for the cytoprotection of CEM-SS cells by XTT cytoprotection assay through the NCI AIDS Screen; assay type: functional, cell-based; conditions: Homo sapiens
[12] = biological target: T1, Human immunodeficiency virus type 1 integrase (Human immunodeficiency virus 1, UniProt Q7ZJM1)
Description: Inhibition of HIV-1 integrase by radiolabeled oligonucleotide-based assay integration

[13] = biological target: T1, Human immunodeficiency virus type 1 integrase; remark: listed apart in the source
Description: Compound was evaluated for the inhibitory concentration against HIV-1 integrase by radiolabeled oligonucleotide-based assay 3''-processing

[14] = Compound was evaluated for the relative Viral infection in MAGI cells at concentration 100 mM, using assay 2
[15] = system: CEM-SS; test: Compound was evaluated for the cytoprotection of CEM-SS cells by XTT cytoprotection assay through the NCI AIDS Screen (EC50); assay type: functional, cell-based; conditions: Homo sapiens
[16] = system: CEM-SS; test: Compound was evaluated for the cytoprotection of CEM-SS cells by XTT cytoprotection assay through the NCI AIDS Screen (IC50); assay type: functional, cell-based; conditions: Homo sapiens
[17] = system: CEM-SS; test: Compound was evaluated for the effect of Order of Addition on Cytoprotection against HIV-1RF at dilution 100, Pretreat only (100 uM); assay type: functional, Homo sapiens
[18] = system: CEM-SS; test: Compound was evaluated for the effect of Order of Addition on Cytoprotection against HIV-1RF at dilution 1000, Pretreat only (100 uM); assay type: functional, Homo sapiens
[19] = system: CEM-SS; test: Compound was evaluated for the effect of Order of Addition on Cytoprotection against HIV-1RF at dilution 333, Pretreat only (100 uM); assay type: functional, Homo sapiens

T1 sequence (Q7ZJM1 whole entry): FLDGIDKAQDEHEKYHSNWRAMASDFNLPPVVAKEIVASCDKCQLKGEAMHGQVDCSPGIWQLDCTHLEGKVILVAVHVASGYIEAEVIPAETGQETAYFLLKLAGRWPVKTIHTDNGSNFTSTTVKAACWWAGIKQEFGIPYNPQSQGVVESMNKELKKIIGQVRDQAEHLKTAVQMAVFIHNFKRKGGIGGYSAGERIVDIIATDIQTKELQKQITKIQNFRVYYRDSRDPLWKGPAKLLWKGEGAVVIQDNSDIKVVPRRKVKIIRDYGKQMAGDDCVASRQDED

IC50 [12] [µM] | IC50 [13] [µM] | Compound | EC50 [1] [µM] | relative infection [2] [%] | relative infection [3] [%] | relative infection [4] [%] | relative infection [5] [%] | relative infection [6] [%] | relative infection [7] [%] | EC50 [8] [µM] | EC50 [9] [µM] | IC50 [10] [µM] | IC50 [11] [µM] | relative infection [14] [%] | EC50 [15] [µM] | IC50 [16] [µM] | Control [17] [%] | Control [18] [%] | Control [19] [%]
6.2 | 9.8 | CC(=O)Oc1ccc(/C=C/C(=O)O[C@@H](C(=O)O)[C@@H](OC(=O)/C=C/c2ccc(OC(C)=O)c(OC(C)=O)c2)C(=O)O)cc1OC(C)=O | 16 | 85 | 4 | 73 | 50 | 42 | 48 | 4.1 | 10.1 | 47.1 | 50 | 2 | – | – | – | – | –
100 | > 333 | CC(=O)Oc1ccc(/C=C/C(=O)NCCOC(=O)/C=C/c2ccc(OC(C)=O)c(OC(C)=O)c2)cc1OC(C)=O | – | – | – | – | – | – | – | – | – | – | – | – | > 15.6 | 15.6 | – | – | –
– | – | NS(=O)(=O)c1ccc(NC(=O)c2ccccc2SSc2ccccc2C(=O)Nc2ccc(S(N)(=O)=O)cc2)cc1 | – | – | – | – | – | – | – | – | – | – | – | – | – | – | 31 | 6 | 4
